Assay: Human HepG2 cell viability assay in 384 well format
Assay type: toxicity, cell-based
Design: dose 125 nL, time 70.5 hour; concentration not given beside the values
Conditions: HepG2 cells, read-out: Inhibition

Structure (SMILES)	cytotoxicity at 70.5 h [%]
CCc1ncc(C(=O)NCCNc2ncnc3sccc23)s1	18.2
CC(=O)N(C)CC(=O)NC1(c2ccc(Br)cc2)CC1	4.73
CCN(CC)CC(=O)Nc1ccc(-n2ccc(C(N)=O)n2)cc1	25.3
CC(C)N(C)CC(=O)Nc1ccc(-n2ccc(C(N)=O)n2)cc1	-2.55
Cc1cccc(CS(=O)(=O)c2nnc(N3CCOCC3)s2)c1	0.983
CS(=O)(=O)CCSC1CCN(c2ccccc2F)C1=O (configuration not stated)	-14.2
CC(=O)N(C)CC(=O)NC1(c2ccc(F)cc2)CCCC1	-2.78
O=C(c1cnc(OCC(F)(F)F)c(Cl)c1)N1CCc2ccc(O)cc2C1	-18.4
Cn1cc(C(=O)CC2CCCN2C(=O)c2ccc3[nH]ncc3c2)cn1 (configuration not stated)	30
Cc1ccc(O)c(C(=O)N2CCCC2CC(=O)c2cnn(C)c2)c1 (configuration not stated)	-4.97
Cc1cc(CC(=O)NCC(O)c2ccc(OC(F)F)cc2)n[nH]1 (configuration not stated)	-4.53
CCc1nc(C2CCCN(C(=O)C3=NN(CC)C(=O)CC3)C2)no1 (configuration not stated)	-13.2
N#Cc1ccc(CN2CCCN(CCCn3cncn3)CC2)cc1	3.01
CC(C)c1n[nH]c(C2CN(Cc3ncc[nH]3)CCO2)n1 (configuration not stated)	35.2
Cc1ccccc1CN(Cc1ccccn1)C(=O)CN(C)C(C)C	2.63
c1ccc(NCc2cccc(OCCN3CCOCC3)c2)nc1	6.42
COCCC(=O)N(Cc1ccccn1)Cc1ccccc1C	7.25
O=c1[nH]nc(SCC2CCCO2)n1C1CC1 (configuration not stated)	-6.11
CS(=O)(=O)Nc1cccc(CNC(=O)CCNC(=O)c2cccs2)c1	23.6
COc1cc2c(cc1OC)CN(C(=O)Cn1nc(C)cc1C)CC2	-5.35
O=C(CN1CCS(=O)(=O)CC1)NC1CCCc2ccccc21 (configuration not stated)	-7.89
N#Cc1cn(CCN2CCc3ccccc3C2)c(=O)[nH]c1=O	0.215
CS(=O)(=O)Nc1cccc(CNC(=O)c2cccs2)c1	19
CCCc1cc(C(=O)NCCN2C(=O)c3ccccc3C2=O)[nH]n1	-8.43

Structure (SMILES)	cytotoxicity at 70.5 h [%]
CS(=O)(=O)NC1CCCN(Cc2ccc(OCc3ccccn3)cc2)C1 (configuration not stated)	-1.69
O=C(NC1CCN(c2cccc(C(F)(F)F)n2)CC1)C1CC1	23.1
CC(C(=O)N1CCN(C(=O)c2ccc(F)cc2)CC1)n1ccnc1 (configuration not stated)	-4.23
COc1cc2c(cc1OC)CCN(C(=O)Cn1nc(C)cc1C)CC2	2.01
O=C1NCC(C(=O)N(Cc2ccc(C(F)(F)F)cc2)C2CC2)N1 (configuration not stated)	23.5
CS(=O)(=O)NC1CCCN(Cc2ccccn2)C1 (configuration not stated)	-1.75
O=C1CC[C@H](C(=O)N(Cc2cccc(Br)c2)C2CC2)N1	2.31
CC(C)(C)c1n[nH]c(C2CN(Cc3ncc[nH]3)CCO2)n1 (configuration not stated)	-0.788
CS(=O)(=O)Cc1ccc(Cl)cc1NCc1cccc(F)c1F	2.24
Cc1nc(-c2ccc(NCCc3ccc(O)cc3)nc2)[nH]c(=O)c1C	3.42
COC(=O)c1ccc(Cn2nc(C)cc2C)c(F)c1	-4.1
COC(=O)c1ccc(Cn2nc(C)cc2C)c(OC)c1	2.29
Cn1c(C2CC2)nc2cc(NC(=O)C3CCOC3)ccc21 (configuration not stated)	-4.07
COc1cc(OC)cc(N2CCC(NCc3cc[nH]n3)C2)c1 (configuration not stated)	40.6
Clc1cccc(N2CCC(NCc3cc[nH]n3)C2)c1 (configuration not stated)	3.22
COCC1CCCN(CCCc2cccc(OC)c2)C1 (configuration not stated)	37.4
CC(CS(C)(=O)=O)N(C(=O)CCc1ccc(Cl)s1)C1CC1 (configuration not stated)	-3.37
CCCc1noc(C(C)S(=O)(=O)Cc2nc(C3CC3)no2)n1 (configuration not stated)	-2.49
CCc1ccc(C(=O)N(CC(F)(F)F)C2CCCOC2)o1 (configuration not stated)	-6.93
CCC(C)NC(=O)CN1CCOCC1 (configuration not stated)	-5.48
CCc1noc(CS(=O)(=O)Cc2ccccc2Cl)n1	-6.3
O=C(Cc1ccc2c(c1)CCO2)Nc1ccc(-n2cncn2)nc1	16.4
O=C(Nc1ccc(Cl)cn1)C1CCCN(CCc2ccncc2)C1 (configuration not stated)	-1.77
Cc1oc(NC(=O)C(C)N2CCN(C(=O)C3CC3)CC2)c(C#N)c1C (configuration not stated)	-1.91

Structure (SMILES)	cytotoxicity at 70.5 h [%]
Cc1oc(NC(=O)C(C)N2CCN(CCO)CC2)c(C#N)c1C (configuration not stated)	-2.61
CC(C)(C)C(=O)Cn1nc(C2CC2)cc(C(F)(F)F)c1=O	-0.663
OCCN1CCC(CNCc2ccc(N3CCCCC3)cc2)CC1	1.15
Cc1cnc(C(=O)N2CCCN(Cc3cnn(C(C)C)c3)CC2)cn1	17.6
Cc1nc(C2CCCN2CC(=O)Nc2c(C)nn(C)c2C)no1 (configuration not stated)	-3.49
Cc1nc(C)n(CC2CN(CCc3cccs3)CCO2)n1 (configuration not stated)	-5.27
O=C(C1CCCC1)N1CCCC1c1nnc2n1CCCCC2 (configuration not stated)	1.94
Cc1cc(F)ccc1NC(=O)NCC(C)N1CCOCC1 (configuration not stated)	32.7
CC1CCCN(C(=O)Nc2ccc(F)c(C(N)=O)c2)C1 (configuration not stated)	-1.11
CCN(CC)C(CNS(=O)(=O)c1ccc(C(N)=O)cc1)c1ccco1 (configuration not stated)	-0.105
NC(=O)c1cc(NC(=O)N2CCOCC2)ccc1F	9.19
CC(CNC(=O)Nc1ccc(F)cc1Br)N1CCOCC1 (configuration not stated)	31.4
c1ccc2c(N3CCOC(Cn4cccn4)C3)ncnc2c1 (configuration not stated)	-4.3
CSC(C)(C)CNC(=O)NC(c1nnc2n1CCC2)C(C)C (configuration not stated)	-3.59
O=C(CC1CN(Cc2ccccc2)CCO1)NCCN1CCOCC1 (configuration not stated)	37.5
Cc1nsc(N2CCCN(C(=O)NCc3cc(C)on3)CC2)n1	-1.32
Cc1noc(CNC(=O)N2CCN(c3nc(C)c(C)s3)CC2)n1	-3.61
Cc1nc(N2CCN(C(=O)NCc3cscn3)CC2)sc1C	-2.92
CC(CNC(=O)Nc1ccc(F)cc1-n1cccc1)N1CCOCC1 (configuration not stated)	4.4
Cn1cc(CCNC(=O)N2CCCC(Cc3nccn3C)C2)cn1 (configuration not stated)	-0.841
Cn1ccnc1CC1CCCN(C(=O)NCCOc2cccnc2)C1 (configuration not stated)	1.38
CCc1nncn1CCNC(=O)N1CCCC(Cc2nccn2C)C1 (configuration not stated)	32.8
Cc1cc(C)n(CCC(=O)N2CCCC(n3nc(C)nc3C)C2)n1 (configuration not stated)	-6.97
N#CC1(NC(=O)CNCCn2cccn2)CCCCC1	-1.06

Structure (SMILES)	cytotoxicity at 70.5 h [%]
CCC(CNC1CCN(C(C)=O)CC1)Oc1cccc(C)c1 (configuration not stated)	-6.04
Cc1sc2nc(C(F)(F)F)nc(N3CCCN(C)CC3)c2c1C	22.1
Cc1sc2nc(C(F)(F)F)nc(N3CCN(S(C)(=O)=O)CC3)c2c1C	-4.32
CCCc1nc(C)c(C(=O)NC2CCN(C3CC3)C2)s1 (configuration not stated)	14.1
CN(Cc1ccc2c(c1)OCO2)Cc1nc(-c2ccco2)no1	-10.9
CCOc1ccc(CNCc2ccc(C(=O)NC)cc2)cc1OCC	-7.21
CNC(=O)c1ccc(CNCc2ccc(SC)c(OC)c2)cc1	27
CC(C)c1ncc2c(n1)CN(Cc1nc3c(F)cccc3[nH]1)CC2	21
N#Cc1ccc(C(=O)NS(=O)(=O)c2ccc(C#N)c(Cl)c2)cc1	-8.83
CN(C(=O)CNCCn1cccn1)C1(C#N)CCCCC1	-3.85
Cc1cc(C)c(C(=O)N2CCOC(c3cccs3)C2)c(=O)[nH]1 (configuration not stated)	-6.92
COc1ccnc(NC(=O)c2cscc2C)c1	-2.28
COc1cc(NC(=O)c2cscn2)ncn1	22.1
N#Cc1ccc(C(=O)NS(=O)(=O)c2ccc(F)c(F)c2)cc1	28.9
O=C(NCCSCc1cccs1)C1CCCN(C(=O)N2CCCC2)C1 (configuration not stated)	-6.45
Cc1[nH]ncc1C(=O)N1CCOC(c2cccs2)C1 (configuration not stated)	25.7
c1cncc(CNc2cccc(OCCN3CCCCC3)c2)c1	-11.5
CCOC(C)c1noc(CN2CCN(Cc3ccno3)CC2)n1 (configuration not stated)	-3.49
CCOC(C)c1noc(CN2CCCN(c3ccccn3)CC2)n1 (configuration not stated)	-12.6
CC(C)c1nc(CC(=O)N(C)Cc2ccc3c(c2)OCO3)cs1	-6.29
CCN(C(c1cccnc1)c1ccc(F)c(F)c1)S(C)(=O)=O (configuration not stated)	-4.7
CCOc1ccc(CC(=O)Nc2cnccc2SCCCO)cc1	-6.43
CCN(C(c1ccc(OC)cc1)c1cccnc1)S(C)(=O)=O (configuration not stated)	-9.72
CC1CCCN(C(=O)CCNS(=O)(=O)c2cccnc2)C1 (configuration not stated)	1.82

Structure (SMILES)	cytotoxicity at 70.5 h [%]
O=C(NC1CC1)C1CCCN1c1ncnc2ccsc12 (configuration not stated)	-9.43
O=C(CCNS(=O)(=O)c1ccccc1)N1CCOC(c2ccccc2)C1 (configuration not stated)	-18
CCN(CC(=O)N(C)C)C(=O)c1cc(-c2cccc(Cl)c2)no1	3.05
CCN(CC)C(=O)c1cc(-c2cccc(Cl)c2)no1	-5.28
CC(CC#N)N1CCN(C(=O)OC(C)(C)C)CC1 (configuration not stated)	13.3
c1cc(-c2noc(CN3CCc4c(ncn4C4CC4)C3)n2)cs1	-20.1
CCNC(=O)CN(CC)C(=O)c1cc(-c2cccc(Cl)c2)no1	-0.184
CC(C)CC(C#N)NC(=O)COC1CCCCC1 (configuration not stated)	-8.86
CCN(CC)C(=O)CN(C)C(=O)c1cc(-c2cccc(Cl)c2)no1	-15.3
CN(CCc1ccncc1)C(=O)C1CSCN1C(=O)C1CCCC1 (configuration not stated)	-5.06
CC(=O)Nc1cccc(CNC(=O)N(C)Cc2ccccc2)c1	-8.01
O=C(NCCc1nnc2n1CCC2)c1ccccc1OC1CCCC1	-9.31
O=S(=O)(c1cccnc1)N1CCCC1COc1ccccc1 (configuration not stated)	-4.52
CCN(CCC(F)(F)F)S(=O)(=O)c1cccc(F)c1C#N	-4.04
CC(C)Oc1ccccc1C(=O)NCCc1nncn1C	-6.83
c1ccc(-c2nc(CN3CCn4c(nnc4C4CC4)C3)no2)cc1	-9.58
CC(C)C1CN(S(=O)(=O)Cc2cccc(C#N)c2)CCS1 (configuration not stated)	-9.85
CC(C)C1CN(S(=O)(=O)c2ccc(C#N)cc2)CCS1 (configuration not stated)	-11.1
Cc1cccc(-c2noc(CN3CCn4c(nnc4C4CC4)C3)n2)c1	-5
COc1ccc(C(C)NCc2c[nH]nc2C)cc1Br (configuration not stated)	-6.07
O=C(CN1CCC[C@@H]1C(=O)O)NCCOc1cccc(C(F)(F)F)c1	-6.55

From ChEMBL document CHEMBL3507680, “University of Dundee, Gates Library screen for HepG2 cell viability”
